Measurements taken from US12251368B2, “Continuous administration of pharmaceutical composition for treatment of neurodegenerative disorders” (InTrance Medical Systems Inc., priority 2018, dated 2025).
Where “and” joins values, the source holds several entries; their conditions need not be identical. Equal entries are not always repeated.

Experiments:
[1] = in the presence of COMT inhibitors; literature reports; cited from earlier work
[2] = intravenous administration (3 mg/kg); cited from earlier work
[3] = in vivo; cited from earlier work
[4] = Storage stability / shelf life of intra-intestinal gel; type: physicochemical
[5] = cited from earlier work
[6] = cited from earlier work; remark: listed apart in the source
[7] = target: T1, peripheral dopamine decarboxylase (Homo sapiens, UniProt P20711); conditions: KINSON prescribing information; cited from earlier work
T1 construct: host or cells: patients (peripheral tissues)
T1 sequence (P20711 1-480): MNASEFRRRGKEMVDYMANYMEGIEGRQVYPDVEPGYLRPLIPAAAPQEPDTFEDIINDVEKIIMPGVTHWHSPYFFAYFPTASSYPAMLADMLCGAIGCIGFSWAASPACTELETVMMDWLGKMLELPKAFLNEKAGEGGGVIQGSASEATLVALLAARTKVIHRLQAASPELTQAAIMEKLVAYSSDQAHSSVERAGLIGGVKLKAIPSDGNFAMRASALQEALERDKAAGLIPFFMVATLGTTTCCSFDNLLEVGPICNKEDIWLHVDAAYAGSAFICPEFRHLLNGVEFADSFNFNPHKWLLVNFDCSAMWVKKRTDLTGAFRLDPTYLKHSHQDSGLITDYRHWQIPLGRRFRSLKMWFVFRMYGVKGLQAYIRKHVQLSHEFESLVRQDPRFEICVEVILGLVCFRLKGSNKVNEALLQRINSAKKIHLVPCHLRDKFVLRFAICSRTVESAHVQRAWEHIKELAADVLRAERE

Q: With `Cc1ccc(C(=O)c2cc(O)c(O)c([N+](=O)[O-])c2)cc1` [Tolcapone, (3,4-Dihydroxy-5-nitrophenyl)(4-methylphenyl)methanone] as the molecule, how does the Levodopa bioavailablity increase [1] read?
A: Its Levodopa bioavailablity increase is 33% and 25%.

Q: What about the elimination half-life [2] of the same molecule?
A: The elimination half-life was 2.9 h.

Q: With `NCCc1ccc(O)c(O)c1` [dopamine, 3,4-dihydroxyphenethylamine] as the molecule, how does the “crossing of the blood-brain barrier” value [3] read?
A: Its value is “does not cross the blood-brain barrier”.

Q: Which “stability in intra-intestinal gel” value ([4]; prior art LCIG and gel compositions of the invention) does the source give for `N[C@@H](Cc1ccc(O)c(O)c1)C(=O)O` [Levodopa, (−)-L-α-amino-β-(3,4-dihydroxybenzene) propanoic acid] here?
A: The value was “relatively stable”.

Q: What about the bioavailability ([5]; administered via DUODOPA gel, same as in a tablet) of the same molecule?
A: Its bioavailability is 81-98%.

Q: What about the “fraction metabolized to dopamine before levodopa reaches the brain” value ([5]; intake of levodopa alone) of the same molecule?
A: The value was “more than 90%”.

Q: What about the “crossing of the blood-brain barrier” value [3] of the same molecule?
A: The value was “does cross the blood-brain barrier”.

Q: What about the solubility in water [6] of the same molecule?
A: Its solubility in water is “slightly soluble in water”.

Q: What does the source list for `C[C@@](Cc1ccc(O)c(O)c1)(NN)C(=O)O` [Carbidopa, (−)-L-α-hydrazino-α-methyl-β-(3,4-dihydroxybenzene) propanoic acid monohydrate]?
A: effect of storage in a light reducing container on degradation ([4]; light reducing container, such as an aluminum bag): some positive effect; dose at which peripheral dopamine decarboxylase is saturated [7]: 70-100 mg per day; crossing of the blood-brain barrier [3]: does not cross the blood-brain barrier; solubility in water [6]: slightly soluble in water
